Measured values published in patent US7390873B2, “Antimicrobial cationic peptides” (University of British Columbia, priority 1995, dated 2008).
Where no end group is shown, it is not given here.

Experiments:
E. coli UB1005 = type: cell-based; details: UB1005, 24 h
Experimental: (§1) Any of the art-known methods for measuring antimicrobial activity of peptides can be used in characterizing the peptides of the invention. In these examples, conventional methods were used to determine the minimal inhibitory concentration (MIC) of a peptide in a liquid medium (Amsterdam. Antibiotics in Laboratory Medicine, Williams and Wilkins, Baltimore (1991) 72-78). Briefly, overnight cultures of the test organisms (described below) were diluted to produce an inoculum containing approximately 10^4 to 10^5 organisms. The inoculum size was confirmed by counting the number of organisms on plates that were inoculated at the same time as the liquid cultures.
(§2) The concentration of peptide was measured by assaying for free amino groups using a dinitrophenylation assay, with polymyxin B serving as a standard. Doubling dilutions of peptide were performed (32 μg/ml-0.25 μg/ml) in 100 μl volumes in a 96-well mictrotiter plate, and all wells were subsequently inoculated with the diluted culture of the test organism. After 24 hours of incubation at 37° C., the assay was read. The MIC value is the concentration of peptide at which the growth of the test organism was reduced by 50%. The number of cells in the culture inoculum was calculated from the plate count after incubating the plate for 24 hours at 37° C. The medium used for cell culture and dilution in this assay was Luria broth (LB). Each peptide was tested three times against each organism, and the MIC values presented below are the mean values of the three experiments.

[1] = system: Pseudomonas aeruginosa K799; type: cell-based; details: K799, 24 h
Experimental: as §1, §2

[2] = system: Staphylococcus aureus RN4220; type: cell-based; details: RN4220, 24 h
Experimental: as §1, §2

[3] = system: Staphylococcus epidermidis C621; type: cell-based; details: C621, 24 h
Experimental: as §1, §2

Candida albicans C627 = type: cell-based; details: C627, 24 h
human red blood cells = assay: Lysis of red blood cells; type: cell-based
Experimental: Freshly collected human blood was mixed with heparin and centrifuged to remove the buffy coat. The resulting erythrocytes were washed three times in 0.85% saline and stored at 4° C. Serial dilutions of the peptides in saline were prepared in round bottomed microtitre plates using 100 μl volumes. Red blood cells were diluted with saline to 1/25 of the packed volume of cells and 50 μl of red blood cells were added to each well. Plates were incubated while rocking at 37° C., and the concentration of peptide required for red blood cell lysis of more than 80% of cells (i.e., visible lysis) was determined at 4 and 24 hours (Table 7).

[4] = Mortality after injection of peptide in mice; type: in vivo; details: 200 μg peptide IP
Experimental: The ability of indolicidin and variants to protect against LPS-induced endotoxemia was assessed in vivo. Mice (8-10 weeks old) were injected intraperitoneally (IP) with 20 mg D-galactosamine (Dgal) to sensitive them to LPS according to the model of Galanos (Galanos, C., M. A., Freudenberg and W. Reutter, 1979, Galactosamine sensitization to the lethal effects of endotoxin. Proc. Natl. Acad. Sci. USA 76:5939), followed by 200 μg peptide in 100 μl. Immediately afterwards LPS (10 μg) in 100 μl was injected. The mice were observed 24 hours after injections and survivors noted. […] When Dgal and LPS were also injected, that 200 μg of indolicidin reduced mortality reduced at 24 hours from 100% in controls to 60%.

**Q.** Which “MIC E. coli” value (E. coli UB1005) does the source give for ILKKWPWWPWRRK [CP-11] here?
**A.** 4 µg/mL

**Q.** And the “MIC P. aeruginosa” value [1]?
**A.** 16 µg/mL

**Q.** What about the “MIC S. aureus” value [2] of the same sequence?
**A.** 16 µg/mL

**Q.** What about the “MIC S. epidermidis” value [3] of the same sequence?
**A.** 2 µg/mL

**Q.** What about the “MIC C. albicans” value (Candida albicans C627) of the same sequence?
**A.** 8 µg/mL

**Q.** And the “Lowest concentration causing lysis, 4 hours” value (human red blood cells)?
**A.** >128 µg/mL

**Q.** What about the “Lowest concentration causing lysis, 24 hours” value (human red blood cells) of the same sequence?
**A.** >128 µg/mL

**Q.** What about the “Mortality after injection of peptide” value [4] of the same sequence?
**A.** did not cause mortality

**Q.** What about the “Toxicity to T-lymphocytes compared with indolicidin” value (T-lymphocytes) of the same sequence?
**A.** less toxic than indolicidin
